Measurements published in US20150290232A1, “DRUG COMPOSITION FOR TREATING TUMORS AND APPLICATION THEREOF” (priority 2012, published 2015).

Assays:
Type in all cases: cell-based
[1] = system: CaES-17 (esophageal cancer cell); test: MTT cell viability, human solid tumor cells
Experimental: (§1) Well-growing cells of above were obtained and inoculated into wells of a 96-well cell culture plate at 5000 cells/well. Individual compounds of various concentrations were added, mixed uniformly, and incubated (5% CO2) at 37° C. for 72 hours. Then the cell viability was determined by the MTT method.
(§2) b) Determine the inhibitory effects of TTD in combination with Ada A on the human solid tumor cells. The pretreatment of the cells was the same as in a). The control group was not treated with the compound while administered. The two single-drug groups were added with respective active component to the concentration under which the IC50 of two compounds in a) achieve. As to the combination group, two compounds were added together into the same group of wells, with the fmal concentration being the concentration to which the IC50 of the single drugs correspond. After 72 hours of incubation, the MTT method was used for the determination of cell viability. The cell viability of the control group was set to 100% in this experiment, and the TTD, Ada A single drug and combined effects on cell viability (%) were calculated.

[2] = system: Hela (human cervical cancer cell); test: MTT cell viability, human solid tumor cells; settings: Hela, 72 h, MTT
Experimental: as §1
as §2, with “The two single-drug groups were added with respective active component to the concentration under which the IC50 of two compounds in a) achieve.” left out

[3] = system: A549 (human lung cancer); test: MTT cell viability, human solid tumor cells; settings: 72 h, MTT
Experimental: as §1
as §2, with “The two single-drug groups were added with respective active component to the concentration under which the IC50 of two compounds in a) achieve.” left out

[4] = system: U87-MG (malignant glioma cell); test: MTT cell viability, human solid tumor cells; settings: U-87 MG, U87-MG, 72 h, MTT
Experimental: as §1
as §2, with “The two single-drug groups were added with respective active component to the concentration under which the IC50 of two compounds in a) achieve.” left out

[5] = system: MG63 (osteosarcoma); test: MTT cell viability, human solid tumor cells; settings: 72 h, MTT
Experimental: as §1
as §2, with “The two single-drug groups were added with respective active component to the concentration under which the IC50 of two compounds in a) achieve.” left out

[6] = system: Panc-1 (pancreatic cancer); test: MTT cell viability, human solid tumor cells; settings: 72 h, MTT
Experimental: as §1
as §2, with “The two single-drug groups were added with respective active component to the concentration under which the IC50 of two compounds in a) achieve.” left out

[7] = system: PC-3 (prostate cancer); test: MTT cell viability, human solid tumor cells; settings: 72 h, MTT
Experimental: as §1
as §2, with “The two single-drug groups were added with respective active component to the concentration under which the IC50 of two compounds in a) achieve.” left out

[8] = system: Huh7 (human liver cancer cell); test: MTT cell viability, human solid tumor cells; settings: 72 h, MTT
Experimental: as §1
as §2, with “The two single-drug groups were added with respective active component to the concentration under which the IC50 of two compounds in a) achieve.” left out

[9] = system: SPC-A-1 (human lung adenocarcinoma cell); test: MTT cell viability, human solid tumor cells; settings: 72 h, MTT
Experimental: as §1
as §2, with “The two single-drug groups were added with respective active component to the concentration under which the IC50 of two compounds in a) achieve.” left out

[10] = system: RKO (human colon adenocarcinoma cell); test: MTT cell viability, human solid tumor cells; settings: RKO, 72 h, MTT
Experimental: as §1
as §2, with “The two single-drug groups were added with respective active component to the concentration under which the IC50 of two compounds in a) achieve.” left out

[11] = system: Hep2 (laryngeal carcinoma); test: MTT cell viability, human solid tumor cells; settings: 72 h, MTT
Experimental: as §1
as §2, with “The two single-drug groups were added with respective active component to the concentration under which the IC50 of two compounds in a) achieve.” left out

[12] = system: MGC-803 (human gastric cancer cell); test: MTT cell viability, human solid tumor cells; settings: 72 h, MTT
Experimental: as §1
as §2, with “The two single-drug groups were added with respective active component to the concentration under which the IC50 of two compounds in a) achieve.” left out

[13] = system: SK-OV-3 (ovarian cancer cell); test: MTT cell viability, human solid tumor cells; settings: 72 h, MTT
Experimental: as §1
as §2, with “The two single-drug groups were added with respective active component to the concentration under which the IC50 of two compounds in a) achieve.” left out

[14] = system: Becap-37 (human breast cancer cell); test: MTT cell viability, human solid tumor cells; settings: 72 h, MTT
Experimental: as §1
as §2, with “The two single-drug groups were added with respective active component to the concentration under which the IC50 of two compounds in a) achieve.” left out

[15] = system: Hep G2 (human hepatoma carcinoma cell); test: MTT cell viability, human solid tumor cells; settings: 72 h, MTT
Experimental: as §1
as §2, with “The two single-drug groups were added with respective active component to the concentration under which the IC50 of two compounds in a) achieve.” left out

[16] = system: CNE (nasopharyngeal carcinoma cell); test: MTT cell viability, human solid tumor cells; settings: CNE, 72 h, MTT
Experimental: as §1
as §2, with “The two single-drug groups were added with respective active component to the concentration under which the IC50 of two compounds in a) achieve.” left out

[17] = system: kasumi-1 cells (acute myeloid leukemia M2 type); test: MTT cell viability, leukemia cells, TTD and Acla A alone and combined; settings: Homo sapiens, 72 h, MTT
Experimental: (§3) Well-growing leukemia cells were obtained and inoculated into wells of a 96-well cell culture plate at 5000 cells/well. Individual compounds of various concentrations were added, mixed uniformly, and incubated (5% CO2) at 37° C. for 72 hours. Then the cell viability was determined by the MTT method.
(§4) b) Determine the inhibitory effects of TTD in combination with Ada A on leukemia cells in vitro. The pretreatment of the cells was the same as in a). The control group was not treated with the compound while administered. […] After 72 hours of incubation, the MTT method was used for the determination of cell viability. The cell viability of the control group was set to 100% in this experiment, and the TTD, Ada A single drug and combined effects on cell viability (%) were calculated.

[18] = system: k562/ADR leukemia cells (drug-resistant chronic myeloid leukemia); test: as above; settings: Homo sapiens, k562/ADR, 72 h, MTT
Experimental: as §3, §4

[19] = system: Jurkat cells (acute lymphoblastic leukemia); test: as above; settings: Homo sapiens, 72 h, MTT
Experimental: as §3, §4

[20] = single compound, read-out: concentration (IC50 value of 72 hours)

## COc1ccc2cc1Oc1ccc(cc1)C[C@H]1c3cc(c(OC)cc3CCN1C)Oc1c(OC)c(OC)cc3c1[C@H](C2)N(C)CC3 [TTD, tetrandrine]
[1]; CaEs17, 72 h, read-out: CV (cell viability)
  viability at 3.59 µg/mL: 47.1%
[1]; CaEs17, CaES-17, single compound, 72 h, MTT, read-out: concentration (IC50 value of 72 hours)
  IC50: 3.59 µg/mL
[2]; TTD 1.25 μg/mL, control = 100%, read-out: CV (cell viability)
  viability at 1.25 µg/mL: 47%
[2]; [20]
  IC50: 1.25 µg/mL
[3]; A549, TTD 8.34 μg/mL, control = 100%, read-out: CV (cell viability)
  viability at 8.34 µg/mL: 47.6%
[3]; A549, single compound, read-out: concentration (IC50 value of 72 hours)
  IC50: 8.34 µg/mL
[4]; TTD 2.37 μg/mL, control = 100%, read-out: CV (cell viability)
  viability at 2.37 µg/mL: 47.7%
[4]; [20]
  IC50: 2.37 µg/mL
[5]; MG-63, MG63, TTD 2 μg/mL, control = 100%, read-out: CV (cell viability)
  viability at 2 µg/mL: 40.8%
[5]; MG-63, MG63, single compound, read-out: concentration (IC50 value of 72 hours)
  IC50: 2 µg/mL
[6]; Panc-1, TTD 4.67 μg/mL, control = 100%, read-out: CV (cell viability)
  viability at 4.67 µg/mL: 52.3%
[6]; Panc-1, single compound, read-out: concentration (IC50 value of 72 hours)
  IC50: 4.67 µg/mL
[7]; PC-3, TTD 4.5 μg/mL, control = 100%, read-out: CV (cell viability)
  viability at 4.5 µg/mL: 47%
[7]; PC-3, single compound, read-out: concentration (IC50 value of 72 hours)
  IC50: 4.5 µg/mL
[8]; Huh-7, Huh7, TTD 3 μg/mL, control = 100%, read-out: CV (cell viability)
  viability at 3 µg/mL: 54%
[8]; Huh-7, Huh7, single compound, read-out: concentration (IC50 value of 72 hours)
  IC50: 3 µg/mL
[9]; SPCA1, SPC-A-1, TTD 3.5 μg/mL, control = 100%, read-out: CV (cell viability)
  viability at 3.5 µg/mL: 52.5%
[9]; SPCA1, SPC-A-1, single compound, read-out: concentration (IC50 value of 72 hours)
  IC50: 3.5 µg/mL
[10]; TTD 1.5 μg/mL, control = 100%, read-out: CV (cell viability)
  viability at 1.5 µg/mL: 45.3%
[10]; [20]
  IC50: 1.5 µg/mL
[11]; HEp-2, Hep2, TTD 2.59 μg/mL, control = 100%, read-out: CV (cell viability)
  viability at 2.59 µg/mL: 43.8%
[11]; HEp-2, Hep2, single compound, read-out: concentration (IC50 value of 72 hours)
  IC50: 2.59 µg/mL
[12]; MGC-803, TTD 3 μg/mL, control = 100%, read-out: CV (cell viability)
  viability at 3 µg/mL: 50.9%
[12]; MGC-803, single compound, read-out: concentration (IC50 value of 72 hours)
  IC50: 3 µg/mL
[13]; SK-OV-3, TTD 5 μg/mL, control = 100%, read-out: CV (cell viability)
  viability at 5 µg/mL: 55.9%
[13]; SK-OV-3, single compound, read-out: concentration (IC50 value of 72 hours)
  IC50: 5 µg/mL
[14]; Becap-37, TTD 3 μg/mL, control = 100%, read-out: CV (cell viability)
  viability at 3 µg/mL: 56.1%
[14]; Becap-37, single compound, read-out: concentration (IC50 value of 72 hours)
  IC50: 3 µg/mL
[15]; HepG2, Hep G2, TTD 1.5 μg/mL, control = 100%, read-out: CV (cell viability)
  viability at 1.5 µg/mL: 52.5%
[15]; HepG2, Hep G2, single compound, read-out: concentration (IC50 value of 72 hours)
  IC50: 1.5 µg/mL
[16]; TTD 3 μg/mL, control = 100%, read-out: CV (cell viability)
  viability at 3 µg/mL: 51.9%
[16]; [20]
  IC50: 3 µg/mL
[17]; kasumi-1, TTD 2 μg/mL, control = 100%, read-out: CV (cell viability)
  viability at 2 µg/mL: 51.7%
[17]; kasumi-1, single compound, read-out: concentration (IC50 value of 72 hours)
  IC50: 2 µg/mL
[18]; TTD 0.6 μg/mL, control = 100%, read-out: CV (cell viability)
  viability at 0.6 µg/mL: 48%
[18]; [20]
  IC50: 0.6 µg/mL
[19]; TTD 1.69 μg/mL, control = 100%, read-out: CV (cell viability)
  viability at 1.69 µg/mL: 52.3%
[19]; [20]
  IC50: 1.69 µg/mL
